# In PMC10897400, “Biochemical and structural characterization of an inositol pyrophosphate kinase from a giant virus” (The EMBO Journal, 2024):
# T1: TvIPK^17-265 (Terrestrivirus sp., UniProt A0A3G4ZNY6)
# T1 construct: gene Terrestrivirus9_15; truncated crystallization construct, residues 17-265, E. coli; residues 17-47 not traced; one molecule per asymmetric unit
# T1 sequence (A0A3G4ZNY6 17-265): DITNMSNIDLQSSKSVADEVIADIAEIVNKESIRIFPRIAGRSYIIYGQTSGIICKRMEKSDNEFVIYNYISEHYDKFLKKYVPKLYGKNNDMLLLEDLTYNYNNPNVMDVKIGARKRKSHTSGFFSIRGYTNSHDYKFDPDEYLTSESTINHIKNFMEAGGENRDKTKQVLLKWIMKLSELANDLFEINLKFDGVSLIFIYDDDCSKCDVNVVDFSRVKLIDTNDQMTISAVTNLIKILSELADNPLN
# T2: TvIPK (full length) (Terrestrivirus sp., UniProt A0A3G4ZNY6)
# T2 construct: gene Terrestrivirus9_15; full-length, codon-optimized, E. coli BL21(DE3); N-terminal His6-MBP tag removed with TEV protease
# T2 sequence (A0A3G4ZNY6 1-265): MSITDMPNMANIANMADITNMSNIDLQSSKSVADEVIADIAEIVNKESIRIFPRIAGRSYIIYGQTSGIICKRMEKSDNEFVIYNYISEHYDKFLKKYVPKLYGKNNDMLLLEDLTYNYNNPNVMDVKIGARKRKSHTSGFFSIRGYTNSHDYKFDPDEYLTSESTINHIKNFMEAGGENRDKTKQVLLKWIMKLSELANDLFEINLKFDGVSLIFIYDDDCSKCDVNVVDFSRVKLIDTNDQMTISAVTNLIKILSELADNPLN
# B1: TvIPK (full length) (Terrestrivirus sp.) (protein)
# chain: T2 sequence (A0A3G4ZNY6 1-265)
# notes: full-length, codon-optimized, E. coli BL21(DE3); N-terminal His6-MBP tag removed with TEV protease
# Columns and labels:
# [1] = target: T1, TvIPK^17-265; assay: X-ray crystal structure; assay type: binding; conditions: Cd2+ in place of Mg2+, soaked 5 mM, Pi present
# [2] = target: T2, TvIPK (full length); assay: X-ray crystal structure; assay type: binding; conditions: co-crystallised with 5 mM ADP, 10 mM MgCl2
# [3] = substrate: Nc1ncnc2c1ncn2[C@@H]1O[C@H](COP(=O)(O)OP(=O)(O)OP(=O)(O)O)[C@@H](O)[C@H]1O; assay: HPLC with [gamma-33P]ATP; assay type: biochemical, Terrestrivirus sp.; conditions: 2 mM myo-IP6, 3.5 mM MgCl2, pH 7.2, 25 °C, labelled compound
# [4] = substrate: O=P(O)(O)O[C@H]1[C@H](OP(=O)(O)O)[C@@H](OP(=O)(O)O)[C@H](OP(=O)(O)O)[C@@H](OP(=O)(O)O)[C@H]1OP(=O)(O)O; assay: HPLC of [3H]IP6 pyrophosphorylation; assay type: biochemical, Terrestrivirus sp.; conditions: 1 mM ATP, 3.5 mM MgCl2, pH 7.2, 25 °C, creatine kinase / creatine phosphate ATP regeneration, labelled compound
molecule,measurement,setting,value
Nc1ncnc2c1ncn2[C@@H]1O[C@H](COP(=O)(O)OP(=O)(O)NP(=O)(O)O)[C@@H](O)[C@H]1O [AMP-PNP],X-ray crystal structure,[1],We also derived crystal complexes with ATP and AMP-PNP
Nc1ncnc2c1ncn2[C@@H]1O[C@H](COP(=O)(O)OP(=O)(O)O)[C@@H](O)[C@H]1O [ADP],X-ray crystal structure,[2],in a binary complex of full-length TvIPK plus ADP
Nc1ncnc2c1ncn2[C@@H]1O[C@H](COP(=O)(O)OP(=O)(O)OP(=O)(O)O)[C@@H](O)[C@H]1O [ATP],X-ray crystal structure,[1]; two ATP conformations,"by making this substitution, we derived an ATP/TvIPK crystal complex"
B1,Km,[3],1600 µM
same,Km,[4],81 µM
